From patent publication US20230313311A1, “METHOD OF ASSESSING THE CIRCADIAN RHYTHM OF A SUBJECT HAVING CANCER AND/OR ASSESSING A TIMING OF ADMINISTRATION OF A MEDICAMENT TO SAID SUBJECT HAVING CANCER” (priority 2020, published 2023)

How the values were obtained:
[1] = test system: BMAL1-Promoter activity in HCT116, SW480 and SW620 colon cancer cells; assay: BMAL1-Promoter activity, live-cell bioluminescence recording over five days; assay type: cell-based, human; details: treated vs control, n=3
Description: Here, the three cell lines were treated with several anti-cancer drugs, including WZB117, Oxaliplatin and cisplatin, and the rhythmic promoter activity of BMAL1 was measured over several days (FIG. 13). […] More specifically, HCT116, SW480 and SW620 colon cancer cells were treated with Oxaliplatin, Cisplatin and WZB117. BMAL1-Promoter activity was measured using live-cell bioluminescence recording over five days. Shown is one representative plot for the control (black) and the treated (grey dashed) condition, n=3.
BMAL1-Promoter activity was measured using live-cell bioluminescence recording over five days. Shown is one representative plot for the control (black) and the treated (grey) condition, n=3.

[2] = test system: mice; details: among six mouse categories; treatment tolerability as output; cited from earlier work
[3] = test system: Panc1 cells; details: cited from earlier work
[4] = test system: AsPC1 cells; details: SMAD4 deficient AsPC1; treated 17 h, 20 h, 23 h after synchronization; cited from earlier work
[5] = test system: core-clock downregulated (shBMAL1, shNR1D1 and shPER2) HCT116 cancer cell lines; assay: Cell proliferation measured using confluence after time-dependent treatment; assay type: cell-based, human; details: 10 μM; treated at 18 h, 21 h and 24 h after cell synchronization; confluence over five days; n=3
Description: FIG. 15 illustrates how cell proliferation for an exemplified for a human cancer cell type is affected by Cisplatin treatment in a time-dependent manner;
In addition to the BMAL1 rhythmicity data, preliminary data were obtained pointing towards the differential regulation of cancer cell proliferation based on the timing of drug administration. […] Cell proliferation was measured using confluence over five days. n=3.

[6] = test system: SW480 colorectal cancer cells; details: cited from earlier work; for effect of drug administration depending on time: control cells; for effect of drug administration depending on time after BMAL1 downregulation: core-clock gene BMAL1 downregulated

SMILES | effect of drug application on rhythmicity of BMAL1 promoter activity [1] | effect of drug administration depending on time [6] | effect of drug administration depending on time after BMAL1 downregulation [6] | further results
CCc1c2c(nc3ccc(OC(=O)N4CCC(N5CCCCC5)CC4)cc13)-c1cc3c(c(=O)n1C2)COC(=O)[C@]3(O)CC [Irinotecan] | alters BMAL1 rhythmic promoter activity | – | – | variation of optimal circadian timing along the 24 hours [2]: up to 8 hour
Nc1ccn([C@@H]2O[C@H](CO)[C@@H](O)C2(F)F)c(=O)n1 [gemcitabine] | – | – | – | differential drug response to different treatment time points after gene downregulation ([3]; Panc1 with downregulation of NR1D1 or SMAD4): the differential drug response to different treatment time points is impaired; response to time-dependent treatment ([3]; SMAD4 proficient Panc1, treated 17 h, 20 h, 23 h after synchronization): more resistant to treatment; response to time-dependent treatment [4]: this effect is not observed
N.N.[Cl][Pt][Cl] [Cisplatin] | altered the rhythmicity of the core-clock gene BMAL1 | – | – | cell proliferation depending on timing of drug administration [5]: reduced cell proliferation for shNR1D1 and shPER2 cells, when cells were treated at 24 h after synchronization compared to the other time-points
O=C1[O][Pt]2([NH][C@@H]3CCCC[C@H]3[NH]2)[O]C1=O [Oxaliplatin] | altered the rhythmicity of the core-clock gene BMAL1 | time-dependent | this effect is lost | –
O=C(Oc1cccc(F)c1OC(=O)c1cccc(O)c1)c1cccc(O)c1 [WZB117] | altered the rhythmicity of the core-clock gene BMAL1 | time-dependent | this effect is lost | –
